This is an account of results in patent US20130059900A1, “CRYSTAL FORM I OF (S)-4-HYDROXY-2-OXO-1-PYRROLIDINE ACETAMIDE, PREPARING METHOD AND USE THEREOF” (priority 2010, published 2013).

SMILES strings stand for the structures.

The test relates to rats having permanent occlusion of the bilateral carotid arteries. In words: Morris Water Maze, memory dysfunction of rats caused by chronic cerebral ischemia. As to conditions: once per day for 37 days; for swimming time of the rats in the target: cerebral ischemia rats. The format is in vivo, SD male rats. Here is the method:
The protective effects of crystal form I of (S)-oxiracetam on memory dysfunction of rats caused by chronic cerebral ischemia. Material and method: The crystal form I of (S)-oxiracetam prepared in Example 1 and oxiracetam (batch number: 20071101, from Dong Ze Pharmaceutical Science and Technology Co., Ltd., Chong Qing, China) were prepared with normal saline solution freshly on being used. 40 SD male rats were used as experimental animals, and each of them was in a weight of 190 g to 220 g (purchased from Southwest Hospital, Chong Qing, China). The experimental animals were separated into four groups at random (10 animals per group): sham-operation group, cerebral ischemia group, experimental group with treatment of crystal form I of (S)-oxiracetam, control group with treatment of oxiracetam. The experimental group was treated with 100 mg/kg crystal form I of (S)-oxiracetam by intragastric administration, while the control group was treated with 200 mg/kg oxiracetam by intragastric administration, and both of the two group were treated once per day for 37 days since the day of beginning the surgery. The rats having permanent occlusion of the bilateral carotid arteries were used as model animals of cerebral ischemia group. The cerebral ischemia group, the experimental group and the control group were abdominally anaesthetized by 40 mg/kg pentobarbital natrium. The No. 4 threads were used to separate and ligate the bilateral carotid arteries. The arteries were cut at a position between the near and the far ligation points, and then the wounds made by cut were surgically stitched. The sham-operation group underwent surgery of separation of the bilateral carotid arteries and the wounds made by the surgeries were surgically stitched right away. The body temperature of the animals are maintained during the surgeries. Morris Water Maze system was used to assayed learning and memory ability of rats (diameter: 120 cm, height: 40 cm; purchased from Institute of Materia Medica (IMM), Chinese Academy of Medical Sciences & Peking Union Medical College). […]

With `NC(=O)CN1C[C@@H](O)CC1=O` [crystal form I of (S)-oxiracetam, (S)-4-hydroxy-2-oxo-1-pyrrolidine acetamide], the “swimming time of the rats in the target” value (100 mg/kg intragastric, vs 20.18±5.26 seconds, P<0.01) turned out to be 35.23 ± 7.03 s. Besides, where the note is “100 mg/kg intragastric, compared with sham-operation group, cerebral ischemia group and oxiracetam control group”, the escape latent periods entry is “shorter escape latent periods”.
Take `NC(=O)CN1CC(O)CC1=O` (racemic) [oxiracetam, reference compound]: the “swimming time of the rats in the target” value (200 mg/kg intragastric, oxiracetam control group) turned out to be 31.23 ± 5.03 s.
